Experiments:
[1] = target: GDP-bound NRAS wild-type protein (Homo sapiens, UniProt P01111); test: Binding to NRAS by surface plasmon resonance (SPR), Single Cycle Kinetics; settings: KD ratio, GDP-bound NRAS wild-type vs GDP-bound KRAS wild-type, SPR
[2] = target: GDP-bound HRAS wild-type protein (Homo sapiens, UniProt P01112); test: Binding to HRAS by surface plasmon resonance (SPR), Single Cycle Kinetics; settings: KD ratio, GDP-bound HRAS wild-type vs GDP-bound KRAS wild-type, SPR
Sequence of GDP-bound HRAS wild-type protein (P01112 whole entry): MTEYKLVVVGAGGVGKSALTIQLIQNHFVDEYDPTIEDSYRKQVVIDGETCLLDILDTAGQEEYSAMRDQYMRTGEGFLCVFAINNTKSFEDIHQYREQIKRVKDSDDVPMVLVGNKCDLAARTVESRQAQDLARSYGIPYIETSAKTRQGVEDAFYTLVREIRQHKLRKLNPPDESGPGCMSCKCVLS

Sequence of GDP-bound NRAS wild-type protein (P01111 whole entry): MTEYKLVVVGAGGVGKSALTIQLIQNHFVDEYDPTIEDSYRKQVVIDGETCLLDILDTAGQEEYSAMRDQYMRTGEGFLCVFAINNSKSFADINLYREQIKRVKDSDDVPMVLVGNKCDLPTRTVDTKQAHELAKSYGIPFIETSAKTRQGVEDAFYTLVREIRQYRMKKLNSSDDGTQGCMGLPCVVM

SMILES	NRAS/KRAS (ratio of KD value with respect to NRAS to KD value with respect to KRAS) [1]	HRAS/KRAS (ratio of KD value with respect to HRAS to KD value with respect to KRAS) [2]
CC[C@H](C)[C@@H]1NC(=O)[C@H](CC(C)C)N(C)C(=O)C[C@@H](C(=O)N2CCOCC2)N(C)C(=O)[C@H](C2CCCC2)N(C)C(=O)C2(CCC2)NC(=O)[C@@H]2[C@@H](OCC3CCCC3)CCN2C(=O)[C@H](CCc2cc(F)c(C(F)(F)F)c(F)c2)NC(=O)CN(C)C(=O)[C@H](Cc2ccc(C(F)(F)F)cc2)N2CCCCC[C@@H](C2=O)N(C)C(=O)CN(C)C1=O [PP1011]	A (a compound having 10 or more and less than 20 is denoted as A)	B (a compound having 3 or more and less than 10 is denoted as B)
CC[C@H](C)[C@@H]1NC(=O)[C@H](CC(C)C)N(C)C(=O)C[C@@H](C(=O)N2CCOCC2)N(C)C(=O)[C@H](C2CCCC2)N(C)C(=O)C2(CCC2)NC(=O)[C@@H]2[C@@H](OCC(F)F)CCN2C(=O)[C@H](CCc2cc(F)c(C(F)(F)F)c(F)c2)NC(=O)CN(C)C(=O)[C@H](Cc2ccc(C(F)(F)F)cc2)N2CCCCC[C@@H](C2=O)N(C)C(=O)CN(C)C1=O [PP1012]	A (a compound having 10 or more and less than 20 is denoted as A)	B (a compound having 3 or more and less than 10 is denoted as B)
CCCCO[C@@H]1C[C@H]2C(=O)NC3(CCC3)C(=O)N(C)[C@@H](C3CCCC3)C(=O)N(C)[C@H](C(=O)N3CCOCC3)CC(=O)N(C)[C@@H](CC(C)C)C(=O)N[C@@H]([C@@H](C)CC)C(=O)N(C)CC(=O)N(C)[C@H]3CCCCN(C3=O)[C@@H](Cc3ccc(C(F)(F)F)cc3)C(=O)N(C)CC(=O)N[C@@H](CCc3cc(F)c(C(F)(F)F)c(F)c3)C(=O)N2C1 [PP1013]	C (A compound having a KD ratio of 0.1 or more and less than 3 is denoted as C)	C (A compound having a KD ratio of 0.1 or more and less than 3 is denoted as C)
CC[C@H](C)[C@@H]1NC(=O)[C@H](CC(C)C)N(C)C(=O)C[C@@H](C(=O)N2CCOCC2)N(C)C(=O)[C@H](C2CCCC2)N(C)C(=O)C2(CCC2)NC(=O)[C@@H]2C[C@@H](OCC3CC3)CN2C(=O)[C@H](CCc2cc(F)c(C(F)(F)F)c(F)c2)NC(=O)CN(C)C(=O)[C@H](Cc2ccc(C(F)(F)F)cc2)N2CCCC[C@@H](C2=O)N(C)C(=O)CN(C)C1=O [PP1014]	C (A compound having a KD ratio of 0.1 or more and less than 3 is denoted as C)	C (A compound having a KD ratio of 0.1 or more and less than 3 is denoted as C)
CC[C@H](C)[C@@H]1NC(=O)[C@H](CC(C)C)N(C)C(=O)C[C@@H](C(=O)N2CCOCC2)N(C)C(=O)[C@H](C2CCCC2)N(C)C(=O)C2(CCC2)NC(=O)[C@@H]2C[C@@H](OCC3CCCC3)CN2C(=O)[C@H](CCc2cc(F)c(C(F)(F)F)c(F)c2)NC(=O)CN(C)C(=O)[C@H](Cc2ccc(C(F)(F)F)cc2)N2CCCC[C@@H](C2=O)N(C)C(=O)CN(C)C1=O [PP1015]	C (A compound having a KD ratio of 0.1 or more and less than 3 is denoted as C)	C (A compound having a KD ratio of 0.1 or more and less than 3 is denoted as C)
CC[C@H](C)[C@@H]1NC(=O)[C@H](CC(C)C)N(C)C(=O)C[C@@H](C(=O)N2CCOCC2)N(C)C(=O)[C@H](C2CCCC2)N(C)C(=O)C2(CCC2)NC(=O)[C@@H]2C[C@@H](OC)CN2C(=O)[C@H](CCc2cc(F)c(C(F)(F)F)c(F)c2)NC(=O)CN(C)C(=O)[C@H](Cc2ccc(C(F)(F)F)cc2)N2CCCCC[C@@H](C2=O)N(C)C(=O)CN(C)C1=O [PP1016]	A (a compound having 10 or more and less than 20 is denoted as A)	B (a compound having 3 or more and less than 10 is denoted as B)

From patent US20250230193A1, “CYCLIC COMPOUND HAVING SELECTIVE KRAS INHIBITORY EFFECT ON HRAS AND NRAS” (CHUGAI SEIYAKU KABUSHIKI KAISHA, priority 2022, published 2025)
